Target: Serine/threonine-protein kinase ATR (Homo sapiens, UniProt Q13535)
Test: ATR Inhibition Assay
Method: Detection of ATR kinase activity utilized the Mobility shift assay to measure the phosphorylation of the substrate protein FAM-RAD17 (GL, Cat. No. 514318, Lot. No. P19042-MJ524315). The assay was developed and conducted at Chempartner. All the test compounds were dissolved in 100% DMSO at concentration of 20 mM, then prepare compounds and conducted the assay as follows: 1) Transfer […] 20 mM compound to 40 μl of 100% DMSO in a 96-well plate.2) Serially dilute the compound by transferring 20 μl to 60 μl of 100% DMSO in the next well and so forth for a total of 10 concentrations.3) Add 100 μl of 100% DMSO to two empty wells for no compound control and no enzyme control in the same 96-well plate. Mark the plate as source plate.4) Transfer 40 μl of compound from source plate to a new 384-well plate as the intermediate plate.5) Transfer 60 nl compounds to assay plate by Echo.6) Add ATR kinase (Eurofins, Cat. No. 14-953, Lot. No. D14 JP007N) into Kinase base buffer (50 mM HEPES, pH 7.5; 0.0015% Brij-35; 0.01% Triton) to prepare 2 enzyme solution, then add 10 μl of 2 enzyme solution to each well of the 384-well assay plate, incubate at room temperature for 10 min.7) Add FAM-RAD17 and ATP (Sigma, Cat. No. A7699-1G, CAS No. 987-65-5) in the kinase base buffer to prepare 2 peptide solution, then add 10 μl to the assay plate.8) Incubate at 28 C. for specified period of time. […]

Chain of Serine/threonine-protein kinase ATR (Q13535 whole entry): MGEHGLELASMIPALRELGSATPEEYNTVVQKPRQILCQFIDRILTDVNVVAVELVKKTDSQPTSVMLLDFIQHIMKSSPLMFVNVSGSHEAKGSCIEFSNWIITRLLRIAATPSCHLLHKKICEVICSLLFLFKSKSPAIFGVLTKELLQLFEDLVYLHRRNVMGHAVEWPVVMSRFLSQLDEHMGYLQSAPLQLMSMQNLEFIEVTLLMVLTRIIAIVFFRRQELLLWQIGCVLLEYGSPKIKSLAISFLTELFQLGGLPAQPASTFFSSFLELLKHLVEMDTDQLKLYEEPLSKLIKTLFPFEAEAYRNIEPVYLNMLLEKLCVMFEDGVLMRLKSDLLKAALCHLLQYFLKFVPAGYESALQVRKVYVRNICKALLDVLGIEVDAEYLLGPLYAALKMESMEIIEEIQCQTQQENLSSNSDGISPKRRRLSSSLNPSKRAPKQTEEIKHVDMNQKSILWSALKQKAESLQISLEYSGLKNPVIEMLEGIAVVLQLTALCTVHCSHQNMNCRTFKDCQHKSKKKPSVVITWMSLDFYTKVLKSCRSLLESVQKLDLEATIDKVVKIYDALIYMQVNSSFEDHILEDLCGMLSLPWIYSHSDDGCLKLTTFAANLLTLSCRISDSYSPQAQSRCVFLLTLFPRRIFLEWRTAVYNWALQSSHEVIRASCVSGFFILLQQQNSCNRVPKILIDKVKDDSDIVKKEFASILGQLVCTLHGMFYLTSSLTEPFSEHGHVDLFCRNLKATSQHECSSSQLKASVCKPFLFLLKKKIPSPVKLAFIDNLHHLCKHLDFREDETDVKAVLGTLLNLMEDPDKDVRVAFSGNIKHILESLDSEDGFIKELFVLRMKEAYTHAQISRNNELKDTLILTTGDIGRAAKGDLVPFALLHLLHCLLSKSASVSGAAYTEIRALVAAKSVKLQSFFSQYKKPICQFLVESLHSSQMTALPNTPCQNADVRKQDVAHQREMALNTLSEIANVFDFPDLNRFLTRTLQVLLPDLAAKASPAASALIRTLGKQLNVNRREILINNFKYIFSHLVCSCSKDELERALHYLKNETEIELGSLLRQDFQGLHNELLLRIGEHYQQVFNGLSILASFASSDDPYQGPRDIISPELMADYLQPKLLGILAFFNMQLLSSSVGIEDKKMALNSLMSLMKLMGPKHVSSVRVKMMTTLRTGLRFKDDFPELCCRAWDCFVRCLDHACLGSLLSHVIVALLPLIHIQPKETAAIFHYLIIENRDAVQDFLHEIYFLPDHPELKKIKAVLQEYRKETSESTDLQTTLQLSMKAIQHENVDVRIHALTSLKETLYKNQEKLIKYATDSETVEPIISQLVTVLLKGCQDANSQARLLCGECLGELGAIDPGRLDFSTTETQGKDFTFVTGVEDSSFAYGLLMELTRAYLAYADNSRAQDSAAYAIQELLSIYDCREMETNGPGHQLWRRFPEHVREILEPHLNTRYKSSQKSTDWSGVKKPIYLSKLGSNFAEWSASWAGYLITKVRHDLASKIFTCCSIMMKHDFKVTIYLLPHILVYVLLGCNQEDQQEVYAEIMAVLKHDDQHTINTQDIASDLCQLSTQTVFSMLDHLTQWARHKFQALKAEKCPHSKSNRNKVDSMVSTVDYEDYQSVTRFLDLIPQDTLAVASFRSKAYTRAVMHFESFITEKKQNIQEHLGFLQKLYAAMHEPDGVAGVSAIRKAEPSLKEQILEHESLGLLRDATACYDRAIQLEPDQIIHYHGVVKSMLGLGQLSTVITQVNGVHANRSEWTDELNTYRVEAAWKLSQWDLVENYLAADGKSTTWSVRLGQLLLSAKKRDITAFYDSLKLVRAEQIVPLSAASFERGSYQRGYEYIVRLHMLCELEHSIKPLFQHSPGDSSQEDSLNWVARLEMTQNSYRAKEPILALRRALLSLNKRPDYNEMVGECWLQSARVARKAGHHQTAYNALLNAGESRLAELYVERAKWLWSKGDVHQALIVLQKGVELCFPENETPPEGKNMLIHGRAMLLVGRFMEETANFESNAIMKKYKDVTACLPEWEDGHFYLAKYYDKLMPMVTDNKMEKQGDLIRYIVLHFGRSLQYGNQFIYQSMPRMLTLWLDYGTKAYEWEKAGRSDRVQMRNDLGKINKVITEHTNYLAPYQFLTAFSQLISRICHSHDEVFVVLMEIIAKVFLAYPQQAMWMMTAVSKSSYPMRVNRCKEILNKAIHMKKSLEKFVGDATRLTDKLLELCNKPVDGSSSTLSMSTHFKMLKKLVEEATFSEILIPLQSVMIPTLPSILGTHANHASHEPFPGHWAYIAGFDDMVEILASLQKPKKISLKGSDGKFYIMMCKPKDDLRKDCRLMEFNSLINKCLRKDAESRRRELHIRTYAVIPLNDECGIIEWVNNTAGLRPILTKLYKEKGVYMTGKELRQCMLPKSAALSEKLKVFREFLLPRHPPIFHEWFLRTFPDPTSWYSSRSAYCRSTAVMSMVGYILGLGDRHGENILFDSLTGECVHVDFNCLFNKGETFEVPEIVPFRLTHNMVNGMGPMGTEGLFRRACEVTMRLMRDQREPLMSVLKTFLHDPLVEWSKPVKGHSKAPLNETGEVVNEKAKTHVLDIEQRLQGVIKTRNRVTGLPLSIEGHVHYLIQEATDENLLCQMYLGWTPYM

IC50 [nM]	Structure (SMILES)
< 100	C[C@@H]1COCCN1c1cc(-c2ccnn2C)c2c(Cl)nc(-c3ccn[nH]3)n2n1 [US20230295166, Compound 61]
< 100	Cc1cc(-c2nsc3c(N4CCCCS4(=O)=O)cc(N4CCOC[C@H]4C)nc23)[nH]n1 [US20230295166, Compound 82]

Reference: BindingDB's records for patent US20230295166 (Antengene Discovery, 2023)
